Series [1] can be described thus: Chemical stability evaluation in solvents (Table F). The format is physicochemical. As to the method:
Chemical stability of this compound was evaluated in MeOH, Acetone, MEK, EtOAc, and IPAc at different temperature points.

The next series deals with NLRP3 inflammasome. The following applies: reported in literature; cited from earlier work.
Series [2] can be described thus: TGA (thermo-gravimetric analysis)/thermal analysis. The format is physicochemical. As to conditions: heated at 10 °C/min, nitrogen purge. As to the method:
Thermo-Gravimetric Analysis (TGA)
TA Instruments Q500: TGA data were collected on a TA Instruments Q500 TGA, equipped with a 16 position auto-sampler. Typically, 5-10 mg of each sample was loaded onto a pre-tared aluminium DSC pan and heated at 10 °C/min from ambient temperature to 350 °C. A nitrogen purge at 60 ml/min was maintained over the sample. The instrument control software was Advantage for Q Series and Thermal Advantage and the data were analysed using Universal Analysis or TRIOS.

Series [3] in a line: Gravimetric vapour sorption (GVS). The class given is physicochemical. On the procedure: Gravimetric Vapour Sorption (GVS)
Sorption isotherms were obtained using a SMS DVS Intrinsic moisture sorption analyser, controlled by DVS Intrinsic Control software. The sample temperature was maintained at 25 °C by the instrument controls. The humidity was controlled by mixing streams of dry and wet nitrogen, with a total flow rate of 200 ml/min. The relative humidity was measured by a calibrated Rotronic probe (dynamic range of 1.0-100% RH), located near the sample. The weight change, (mass relaxation) of the sample as a function of % RH was constantly monitored by a microbalance (accuracy±0.005 mg).
Typically, 5-30 mg of sample was placed in a tared mesh stainless steel basket under ambient conditions. The sample was loaded and unloaded at 40% RH and 25 °C (typical room conditions). A moisture sorption isotherm was performed as outlined below (2 scans per complete cycle). The standard isotherm was performed at 25 °C at 10% RH intervals over a 0-90% RH range. Typically, a double cycle (4 scans) was carried out. Data analysis was carried out within Microsoft Excel using the DVS Analysis Suite.
The sample was recovered after completion of the isotherm and re-analysed by XRPD.

Series [4] can be described thus: Storage at 25 °C/97% RH and 40 °C/75% RH. The class given is physicochemical. As to the method:
Chemical Purity Determination by High-Performance Liquid Chromatography (HPLC)
Purity analysis was performed on an Agilent HP1100/Infinity II 1260 series system equipped with a diode array detector and using OpenLAB software. The full method details are provided below:
Unless stated within the appropriate data tables, all HPLC purity data reported has been run using the HPLC Method No. 2.

A short description of series [5]: Solubility in single solvents, Form 2 as starting material (Table D). The class given is physicochemical. As to conditions: 20-25 °C. On the procedure:
Solubility of Form 1 was measured in several single solvents using Form 2 as starting material, respectively. […] Thus, MeOH, Acetone, MEK, EtOAc and IPAc were selected for further chemical stability evaluation before starting solubility test with anti-solvents.

≈ marks a conversion by molar mass, not a printed value. Entries after “also recorded” stand apart in the source; their conditions may differ.

As for `CC(C)OC(=O)[C@@H](Cc1ncccn1)OC(=O)Nc1c2c(cc3c1CCC3)CCC2` [Compound A, propan-2-yl(2R)-2-{[(1,2,3,5,6,7-hexahydro-s-indacen-4-yl)carbamoyl]oxy}-3-(pyrimidin-2-yl) propanoate], the “Chemical stability in words” value was “slight degradation” in series [1] (Acetone and EtOAc, 23 h); “chemical stable” in series [1] (IPAc, 50 °C, 24 h); “serious degradation” in series [1] (MeOH and MEK, 23 h). For the same compound, the “Chemical stability: purity” value in series [1] (Acetone, 40 °C, 0 h) is recorded as 99.57%; in series [1] (Acetone, 40 °C, 5-6 h), 99.55%; in series [1] (Acetone, 40 °C, 23-24 h), 98.06%; in series [1] (EtOAc, 40 °C, 0 h) it was 99.49%; in series [1] (EtOAc, 40 °C, 5-6 h), 99.46%; in series [1] (EtOAc, 40 °C, 23-24 h), 99.46%. In addition, the “Chemical stability: purity” value in series [1] (EtOAc, 50 °C, 0 h) was determined as 99.43%; in series [1] (EtOAc, 50 °C, 5-6 h), 99.31%; in series [1] (EtOAc, 50 °C, 23-24 h), 99.27%; in series [1] (IPAc, 50 °C, 0 h), 99.70%; in series [1] (IPAc, 50 °C, 5 h) it was 99.73%; in series [1] (IPAc, 50 °C, 24 h), 99.76%. Further, the “Chemical stability: purity” value in series [1] (MEK, 40 °C, 0 h) came to 99.52%; in series [1] (MEK, 40 °C, 5-6 h), 99.51%; in series [1] (MEK, 40 °C, 23-24 h), 93.28%; in series [1] (MEK, 50 °C, 0 h), 99.38%; in series [1] (MEK, 50 °C, 5-6 h) it was 92.75%; in series [1] (MEK, 50 °C, 23-24 h), 87.20%. Further, the “Chemical stability: purity” value came out at 99.12% in series [1] (MeOH, 50 °C, 0 h); 98.03% in series [1] (MeOH, 50 °C, 5-6 h); 90.58% in series [1] (MeOH, 50 °C, 23-24 h).

Take `COc1ccc(Cl)cc1C(=O)NCCc1ccc(S(=O)(=O)NC(=O)NC2CCCCC2)cc1` [Glyburide]: in the series with NLRP3 inflammasome, the “Concentration of NLRP3 inhibition in words” value is given as “micromolar concentrations” and the “Effect on NLRP3 activation” value was “specific inhibitor of NLRP3 activation”.

For `OC(CNCC(O)C1CCc2cc(F)ccc2O1)C1CCc2cc(F)ccc2O1` (stereo not drawn) [nebivolol], the “Effect on NLRP3 activation” value with NLRP3 inflammasome was “impair NLRP3 activation”.

Regarding `C[S+]([O-])CCCCN=C=S` (stereo not drawn) [sulforaphane], in the series on NLRP3 inflammasome, the “Effect on NLRP3 activation” value is listed as “suppress NLRP3 activation”.

As for `Cc1ccc(S(=O)(=O)/C=C/C#N)cc1` [Bay 11-7082], in the series with NLRP3 inflammasome, the “Effect on NLRP3 activation” value was “impair NLRP3 activation”.

Turning to `O=c1c(O)c(-c2ccc(O)c(O)c2)oc2cc(O)cc(O)c12` [quercetin], in the series on NLRP3 inflammasome, the “Effect on NLRP3 activation” value is given as “suppress NLRP3 activation”.

As to `OC[C@H]1O[C@@H](c2ccc(Cl)c(Cc3ccc(O[C@H]4CCOC4)cc3)c2)[C@H](O)[C@@H](O)[C@@H]1O` [epigliflozin], the “Effect on NLRP3 activation” value with NLRP3 inflammasome was “impair NLRP3 activation”.

As for `CNCCC(Oc1ccc(C(F)(F)F)cc1)c1ccccc1` (stereo not drawn) [fluoxetine], the “Effect on NLRP3 activation” value in the series on NLRP3 inflammasome was “impair NLRP3 activation”.

In the case of `NC[C@@H]1O[C@H](c2ccccc2)Cc2c1ccc(O)c2O` [Form A-68930], in the series with NLRP3 inflammasome, the “Effect on NLRP3 activation” value is on record as “impair NLRP3 activation”.

For `C=C1C(=O)O[C@H]2[C@H]1CC/C(C)=C/CC[C@@]1(C)O[C@@H]21` [parthenolide], the “Effect on NLRP3 activation” value with NLRP3 inflammasome was “impair NLRP3 activation”.

Consider `O=[N+]([O-])C=Cc1ccc2c(c1)OCO2` [3,4-methylenedioxy-β-nitrostyrene], for which, in the series with NLRP3 inflammasome, the “Effect on NLRP3 activation” value is recorded as “impair NLRP3 activation”.

The term Solubility denotes how much of the substance goes into solution per volume. A higher Solubility goes with a readily soluble substance. As to `CC(C)OC(=O)[C@@H](Cc1ncccn1)OC(=O)Nc1c2c(cc3c1CCC3)CCC2` [Form 2, propan-2-yl(2R)-2-{[(1,2,3,5,6,7-hexahydro-s-indacen-4-yl)carbamoyl]oxy}-3-(pyrimidin-2-yl) propanoate], the “TGA weight loss before degradation” value in series [2] is listed as “No weight loss before degradation”. In addition, in series [3] (25 °C), the GVS hygroscopicity entry is on record as “Non-hygroscopic”. Further, in series [3] (25 °C), the GVS hysteresis entry is reported as “no hysteresis”. Further, the GVS water uptake in series [3] (25 °C, 0-90% RH) is reported as ~0.15% reversible uptake from 0-90% RH; in series [3] (25 °C, 40-90% RH), 0.09%. Moreover, the “XRPD post GVS” value in series [3] (form after GVS experiment) was “remained Form 2; also recorded: Crystalline - Form 2”. Moreover, the “Storage: solid form” value in series [4] (25 °C/97% RH) and in series [4] (40 °C/75% RH) was “Crystalline - Form 2” each time. Also, in series [4] (25 °C/97% RH and 40 °C/75% RH for 1 week), the “Stability at elevated storage” value was “stable”. The “Stability of solid form at elevated conditions” value in series [4] (elevated conditions) is reported as “stable at elevated conditions”. For the same compound, the “Form conversion after slurry (XRPD)” value in series [5] (all selected solvents except water) is “converted to Form 1”. In addition, the “Form after slurry (XRPD)” value in series [5] (H2O, starting material Form 2) is listed as “Form 2”. Moreover, the Solubility in series [5] (H2O, starting material Form 2, XRPD Form 2) is 1 mg/mL (≈ 2440 µM).

(Values after patent US20260345601A1, “FORMS OF CARBAMATE DERIVATIVES AND RELATED USES” (NodThera Limited, priority 2022, published 2026).)
